Patent US10342806B2, “Hormone treatment for age-related hearing loss-presbycusis” (priority 2014, dated 2019)

Tests used:
NKCC1 = NKCC1 protein expression in HT-29 cells, Western blot; type: cell-based, human
Text: Cell culture and buffers. […] Arch Oral Biol 52: 411-416, 2007). These include, for example, studies of COMM domain-containing protein 1, which is involved in NKCC1 ubiquitination and transcriptional regulation of epithelial Na^+ channels (ENaC) located in the apical membrane of polarized epithelial cells, in particular, cells in the colon, kidney, and lung, by ALD (Cohen, et al., Induced differentiation in HT29, a human colon adenocarcinoma cell line. J Cell Sci 112: […], 1999, Epple, et al., Early aldosterone effect in distal colon by transcriptional regulation of ENaC subunits. Am J Physiol Gastrointest Liver Physiol 278: G718-G724, 2000, Smith, et al., COMMD1 interacts with the COOH terminus of NKCC1 in Calu-3 airway epithelial cells to modulate NKCC1 ubiquitination. Am J Physiol Cell Physiol 305: C133-C146, 2013). HT-29 cells were grown in DMEM media (Invitrogen, Carlsbad Calif.) with 10% FBS and antibiotics. Cells were grown in a humidified 95%/5% CO2 incubator at 37° C. Experiments were performed at 70-80% confluence.
(§1) Western blot. Cell lysates were prepared in RIPA buffer (Pierce 89901; Thermo Scientific, Waltham, Mass.) with protease inhibitor cocktail (78430; Thermo Scientific). Cell samples were homogenized in buffer, followed by centrifugation at 2,000 rpm for 10 min at 4° C. Supernatants were subjected to Western blot analysis by loading 200 μg of protein per lane, after the protein concentrations were determined by Bradford protein assay. Proteins were fractionated by SDS-PAGE gel electrophoresis and transferred to a PVDF blotting membrane (Whatman, Piscataway, N.J.). The blot was incubated with primary antibodies against β-actin and Na—K-2C1 cotransport protein (Cell Signaling, Danvers Mass.); primary antibodies for p-SGK1, SGK1, pNedd4-2, and Nedd4-2 were utilized (concentration 1:1,000). The secondary antibody was horseradish peroxidaseconjugated goat anti-rabbit IgG (1:2,000; Cell Signaling).
Statistical analysis. Images from films were imported into Adobe Photoshop (v 5.0), and further processed using Adobe Photoshop CS and ImageJ (National Institutes of Health) for the densitometry analysis. Data are reported as means±SD. Statistical analyses were performed with PRISM 4.0 (GraphPad Software, San Diego Calif.). Differences were analyzed with a one- or a two-way repeated measures ANOVA as appropriate or a two-way ANOVA followed by Bonferroni post hoc analyses that were corrected for multiple comparisons. Values of P <0.05 were considered significant.

[1] = test system: mineralocorticoid receptors (MCR); assay: MCR expression in spiral ganglion neurons (western blot, immunohistochemistry); type: in vivo, mouse; conditions: middle-aged mice, ALD treatment vs young adult and middle age controls
Protocol: Death was confirmed by terminal phlebotomy/exsanguinations and perfusion.
After sacrifice, a cochlear modiolus (CM) was dissected from the temporal bone, & pooled together for measuring NKCC1 protein and mRNA expression. The other CM was prepared for immunohistochemistry as described below. Data was analyzed using one-way ANOVA, and two-way repeated measures ANOVA through GraphPad Prism 5.0 with protein level measurements (Δ Intensity=Background tissue intensity−experimental area intensity) (GraphPad Software, La Jolla, Calif.).
For Western blot and RT-PCR, cells were placed in RIPA buffer and sonicated. Protein concentration was measured using the Bradford method. Proteins were separated by SDS-PAGE. […]
For immunohistochemistry, mice were sacrificed, and one of the cochleae dissected, fixed in 4% paraformaldehyde in PBS overnight at 4° C., decalcification in 10% EDTA in PBS for a week at 4° C., and incubated in cryoprotection solution overnight at 4° C. […] The spiral ganglion neurons were counted by Metamorph imaging software (Molecular Devices, Center Valley, Pa. 18034-0610) and data analyzed by GraphPad Prism (GraphPad Software, Inc. La Jolla, Calif.).
Levels of staining for MCR presence in young adult and middle-aged mice was determined by densitometry analysis (MetaMorph Image Analysis System) of immunocytochemistry sections.

iNOS and nNOS = iNOS and nNOS expression in modiolar tissue samples; type: in vivo, mouse; conditions: young adult, control middle-aged, ALD-treated middle-aged mice
Protocol: During treatment, blood pressures were measured for the mice at 2 and 4 months after start of treatment. […] Death was confirmed by terminal phlebotomy/exsanguinations and perfusion. Cell lysates were collected and subject to western blot and RT-PCT analysis. The cells were placed in RIPA buffer and sonicated. Protein concentration was measured using the Bradford method. Proteins were separated by SDS-PAGE. The antibodies used for western blot were: anti-iNOS, nNOS and caspase-3 antibodies (Cell Signaling, Cambridge, Mass.). Total cellular RNA was extracted using the RNeasy Plus Mini Kit (74134). For RT-PCR, 10 ng of total cellular RNA was reverse transcribed and complementary DNA was amplified, using the Enhanced Avian HS RT-PCR-100 Kit (Sigma, HSRT20). Primers used for qRT-PCR were as follows: […]

SGK1 and Nedd4-2 = SGK1 and Nedd4-2 phosphorylation in HT-29 cells, Western blot; type: cell-based, human; conditions: ALD 1 μM, GSK 650394 50 μM, 9 h
Protocol: FIG. 25 is a blot showing ALD modulation of NKCC1 via the ALD-SGK1-Nedd4-2 pathway. HT-29 cells were treated with ALD (1 μM) or ALD (1 μM)+GSK650394 (50 μM) for 9 h. Cell lysates were analyzed by Western blot as indicated. Blots are representative of 3 independent experiments. Left: controls. Middle: ALD increases the phosphorylations of SGK1 and Nedd4-2, concomitantly there is an increased induction of NKCC1 protein expression (1st row).
as §1

C[C@]12CCC(=O)C=C1CC[C@@H]1[C@@H]2[C@@H](O)C[C@]2(C=O)[C@@H](C(=O)CO)CC[C@@H]12 [ALD, aldosterone]
induction of NKCC1 protein expression (NKCC1; ALD 1 μM, MG-132 20 μM, CQ 50 μM, 9 h): induce NKCC1 protein expression similarly | decline of NKCC1 protein levels in response to cycloheximide (NKCC1; ALD 1 μM, cycloheximide 20 μg/ml, 3, 6, or 9 h, relative to nontreated cells): much slower | threshold of NKCC1 induction (significant response) (NKCC1; HT-29 cells): ~10 pM | time by which NKCC1 up-regulation took effect (NKCC1; HT-29 cells, ALD 1 μM): ≤ 2 h | NKCC1 protein expression levels (NKCC1; HT-29 cells, ALD 1 μM, stable over 12-24 h): upregulated | start of NKCC1 induction after treatment (NKCC1; HT-29 cells, ALD (1 nM)): 30 to 40 min | MCR expression levels, densitometry of immunocytochemistry sections [1]: partially rescued the expression levels seen in the young adult | iNOS and nNOS gene expression (iNOS and nNOS): no alteration in NOS expression | iNOS protein levels (iNOS and nNOS): approximately the same | phosphorylation of SGK1 and Nedd4-2 (SGK1 and Nedd4-2): increases the phosphorylation of SGK1 and Nedd4-2
